The NIST ThermoML archive (doi:10.1016/j.jct.2012.12.001)
“And” between values parts separate entries of the source, which are not always exact repeats. Equal values may be shown once. ± gives the expanded uncertainty stated by the source.

Assay: heat capacity at constant pressure per volume; xn = mol fraction of the nth substance listed
Details: 101 kPa, Liquid, DSC, x2 = 0.695

## CCCCCCCCCCCCCCCCC [heptadecane] + N#Cc1ccccc1
329.3 K
  heat capacity: 1720700 ± 20000 J/K/m3
329.4 K
  heat capacity: 1721000 ± 20000 J/K/m3
329.5 K
  heat capacity: 1721100 ± 20000 J/K/m3
329.61 K
  heat capacity: 1721300 ± 20000 J/K/m3
329.7 K
  heat capacity: 1721300 ± 20000 J/K/m3
329.8 K
  heat capacity: 1721400 ± 20000 J/K/m3
329.9 K
  heat capacity: 1721400 ± 20000 J/K/m3
330 K
  heat capacity: 1721300 ± 20000 J/K/m3
330.1 K
  heat capacity: 1722000 ± 20000 J/K/m3
330.2 K
  heat capacity: 1722500 ± 20000 J/K/m3
330.3 K
  heat capacity: 1722400 ± 20000 J/K/m3
330.4 K
  heat capacity: 1722100 ± 20000 J/K/m3
330.5 K
  heat capacity: 1721600 ± 20000 J/K/m3
330.61 K
  heat capacity: 1721600 ± 20000 J/K/m3
330.7 K
  heat capacity: 1721300 ± 20000 J/K/m3
330.8 K
  heat capacity: 1721300 ± 20000 J/K/m3
330.9 K
  heat capacity: 1721300 ± 20000 J/K/m3
331 K
  heat capacity: 1721500 ± 20000 J/K/m3
331.1 K
  heat capacity: 1721700 ± 20000 J/K/m3
331.2 K
  heat capacity: 1721500 ± 20000 J/K/m3
331.3 K
  heat capacity: 1721200 ± 20000 J/K/m3
331.4 K
  heat capacity: 1721400 ± 20000 J/K/m3
331.5 K
  heat capacity: 1721300 ± 20000 J/K/m3
331.6 K
  heat capacity: 1721300 ± 20000 J/K/m3
331.7 K
  heat capacity: 1721500 ± 20000 J/K/m3
331.81 K
  heat capacity: 1721700 ± 20000 J/K/m3
331.9 K
  heat capacity: 1722000 ± 20000 J/K/m3
332 K
  heat capacity: 1722000 ± 20000 J/K/m3
332.1 K
  heat capacity: 1721900 ± 20000 J/K/m3
332.2 K
  heat capacity: 1722100 ± 20000 J/K/m3
332.3 K
  heat capacity: 1722100 ± 20000 J/K/m3
332.4 K
  heat capacity: 1722000 ± 20000 J/K/m3
332.5 K
  heat capacity: 1722000 ± 20000 J/K/m3
332.6 K
  heat capacity: 1722200 ± 20000 J/K/m3
332.7 K
  heat capacity: 1722600 ± 20000 J/K/m3
332.8 K
  heat capacity: 1722700 ± 20000 J/K/m3
332.9 K
  heat capacity: 1722700 ± 20000 J/K/m3
333 K
  heat capacity: 1722600 ± 20000 J/K/m3
333.1 K
  heat capacity: 1722200 ± 20000 J/K/m3
333.2 K
  heat capacity: 1721900 ± 20000 J/K/m3
333.31 K
  heat capacity: 1721900 ± 20000 J/K/m3
333.4 K
  heat capacity: 1722000 ± 20000 J/K/m3
333.5 K
  heat capacity: 1722000 ± 20000 J/K/m3
333.6 K
  heat capacity: 1722200 ± 20000 J/K/m3
333.7 K
  heat capacity: 1722700 ± 20000 J/K/m3
333.8 K
  heat capacity: 1722800 ± 20000 J/K/m3
333.9 K
  heat capacity: 1722600 ± 20000 J/K/m3
334 K
  heat capacity: 1722600 ± 20000 J/K/m3
334.1 K
  heat capacity: 1722700 ± 20000 J/K/m3
334.2 K
  heat capacity: 1722600 ± 20000 J/K/m3
334.3 K
  heat capacity: 1722900 ± 20000 J/K/m3
334.4 K
  heat capacity: 1723400 ± 20000 J/K/m3
334.5 K
  heat capacity: 1723900 ± 20000 J/K/m3
334.6 K
  heat capacity: 1723800 ± 20000 J/K/m3
334.7 K
  heat capacity: 1723400 ± 20000 J/K/m3
334.8 K
  heat capacity: 1723000 ± 20000 J/K/m3
334.9 K
  heat capacity: 1722900 ± 20000 J/K/m3
335 K
  heat capacity: 1723100 ± 20000 J/K/m3
335.1 K
  heat capacity: 1723300 ± 20000 J/K/m3
335.2 K
  heat capacity: 1723600 ± 20000 J/K/m3
335.3 K
  heat capacity: 1723700 ± 20000 J/K/m3
335.4 K
  heat capacity: 1723700 ± 20000 J/K/m3
335.5 K
  heat capacity: 1723700 ± 20000 J/K/m3
335.6 K
  heat capacity: 1723600 ± 20000 J/K/m3
335.7 K
  heat capacity: 1723500 ± 20000 J/K/m3
335.8 K
  heat capacity: 1723300 ± 20000 J/K/m3
335.9 K
  heat capacity: 1723400 ± 20000 J/K/m3
336 K
  heat capacity: 1723600 ± 20000 J/K/m3
336.1 K
  heat capacity: 1723400 ± 20000 J/K/m3
336.2 K
  heat capacity: 1723600 ± 20000 J/K/m3
336.3 K
  heat capacity: 1723200 ± 20000 J/K/m3
336.4 K
  heat capacity: 1723100 ± 20000 J/K/m3
336.5 K
  heat capacity: 1723300 ± 20000 J/K/m3
336.6 K
  heat capacity: 1723400 ± 20000 J/K/m3
336.7 K
  heat capacity: 1723700 ± 20000 J/K/m3
336.8 K
  heat capacity: 1724100 ± 20000 J/K/m3
336.9 K
  heat capacity: 1724400 ± 20000 J/K/m3
337 K
  heat capacity: 1724100 ± 20000 J/K/m3
337.1 K
  heat capacity: 1724200 ± 20000 J/K/m3
337.18 K
  heat capacity: 1724100 ± 20000 J/K/m3
337.32 K
  heat capacity: 1723700 ± 20000 J/K/m3
337.43 K
  heat capacity: 1723700 ± 20000 J/K/m3
337.52 K
  heat capacity: 1724100 ± 20000 J/K/m3
337.6 K
  heat capacity: 1724300 ± 20000 J/K/m3
337.73 K
  heat capacity: 1724500 ± 20000 J/K/m3
337.8 K
  heat capacity: 1724400 ± 20000 J/K/m3
337.9 K
  heat capacity: 1724900 ± 20000 J/K/m3
338 K
  heat capacity: 1724800 ± 20000 J/K/m3
338.01 K
  heat capacity: 1724800 ± 20000 J/K/m3
338.02 K
  heat capacity: 1724900 ± 20000 J/K/m3
338.03 K
  heat capacity: 1724900 ± 20000 J/K/m3
338.45 K
  heat capacity: 1724800 ± 20000 J/K/m3 and 1724900 ± 20000 J/K/m3
338.53 K
  heat capacity: 1725300 ± 20000 J/K/m3
338.58 K
  heat capacity: 1725400 ± 20000 J/K/m3
338.59 K
  heat capacity: 1725200 ± 20000 J/K/m3
338.6 K
  heat capacity: 1725300 ± 20000 J/K/m3
338.62 K
  heat capacity: 1725200 ± 20000 J/K/m3
339 K
  heat capacity: 1724600 ± 20000 J/K/m3 and 1724700 ± 20000 J/K/m3
339.01 K
  heat capacity: 1724600 ± 20000 J/K/m3 and 1724500 ± 20000 J/K/m3
339.1 K
  heat capacity: 1724700 ± 20000 J/K/m3 and 1724600 ± 20000 J/K/m3
339.11 K
  heat capacity: 1724700 ± 20000 J/K/m3 and 1724800 ± 20000 J/K/m3
339.13 K
  heat capacity: 1724700 ± 20000 J/K/m3
339.2 K
  heat capacity: 1725100 ± 20000 J/K/m3
